This note sets out measurements from ChEMBL document CHEMBL1201862, “PubChem BioAssay data set” (2004).

In experiment [1] the target is T1, DNA dC->dU-editing enzyme APOBEC-3G (Homo sapiens, UniProt Q9HC16). The class given is functional.
Experiment [2] addresses T2, DNA dC->dU-editing enzyme APOBEC-3A (Homo sapiens, UniProt P31941). In words: Dose Response confirmation of small molecule APOBEC3A DNA Deaminase Inhibitors via a fluorescence-based single-stranded DNA deaminase assay. [Related pubchem assays (depositor defined):AID493011, AID493024]. The experiment is classed as functional.
Experiment [3] has as its target T3, G-protein coupled receptor 55 (Homo sapiens, UniProt Q9Y2T6). In words: inhibition of LPI-stimulated GPR55 beta-arrestin translocation – imaging, U2OS, beta-arrestin-GFP, LPI agonist, primary screen (AID 2013).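 Also: antagonist potency measured as reduced agonist-driven arrestin aggregation.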 The experiment is classed as functional.
The target of experiment [4] is T1, DNA dC->dU-editing enzyme APOBEC-3G. Put plainly: Dose Response confirmation of small molecule APOBEC3G DNA Deaminase Inhibitors via a fluorescence-based single-stranded DNA deaminase assay. [Related pubchem assays (depositor defined):AID493012, AID493028]. The experiment is classed as functional.
Experiment [5] addresses T2, DNA dC->dU-editing enzyme APOBEC-3A. Put plainly: A3A deaminase inhibition for selectivity – biochemical, dose response (AID 504722). The experiment is classed as functional.
Experiment [6] concerns the target Glucose-6-phosphate 1-dehydrogenase (Homo sapiens, UniProt P11413). In words: inhibition of Homo sapiens G6PD, dose series – biochemical, fluorescence, selectivity assay for P. falciparum G6PD inhibitor project, dose response (AID 504792). The class given is functional.
A further experiment addresses T4, Streptokinase A (Streptococcus pyogenes serotype M1, UniProt P10520).
T4 sequence (P10520 whole entry): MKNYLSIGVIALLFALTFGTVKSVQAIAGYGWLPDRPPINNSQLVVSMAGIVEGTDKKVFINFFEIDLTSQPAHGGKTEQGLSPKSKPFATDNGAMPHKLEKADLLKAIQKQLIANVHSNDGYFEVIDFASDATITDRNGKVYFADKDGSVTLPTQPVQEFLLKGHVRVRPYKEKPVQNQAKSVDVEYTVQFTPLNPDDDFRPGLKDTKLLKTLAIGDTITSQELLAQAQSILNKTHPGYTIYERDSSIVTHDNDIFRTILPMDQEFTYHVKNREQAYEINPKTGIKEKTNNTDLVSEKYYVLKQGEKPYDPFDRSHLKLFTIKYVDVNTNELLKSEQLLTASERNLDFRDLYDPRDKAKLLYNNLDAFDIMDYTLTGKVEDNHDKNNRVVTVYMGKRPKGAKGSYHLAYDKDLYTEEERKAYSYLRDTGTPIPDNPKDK
Put plainly: viability-normalized secreted streptokinase activity reduction – plasminogen activation absorbance, OD405, dose response (AID 1914).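 Also: secreted streptokinase activity via plasminogen activation per viability signal from cell pellet.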 The experiment is classed as functional, Streptococcus pyogenes M1 GAS.

Experiment [7] concerns the target Transitional endoplasmic reticulum ATPase (Homo sapiens, UniProt P55072). In words: p97 ATPase inhibitors, dose response, biochemical (AID 1534).
The nature of experiment [8]: NIH-3T3 fibroblast cytotoxicity, dose response, cytotoxicity control, cell-based, fluorescence, Alamar Blue, secondary assay (AID 2327).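 Also: NIH-3T3 mouse fibroblasts cultured with fluconazole at 8 µg/mL.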 The experiment is classed as functional.
In experiment [9] the target is Transitional endoplasmic reticulum ATPase (Homo sapiens, UniProt P55072, C522A). Put plainly: C522A mutant p97 ATPase inhibitors, dose response, counter-screen for p97 inhibitor project, biochemical, luminescence (AID 1544).
Chain of Transitional endoplasmic reticulum ATPase (Homo sapiens, UniProt P55072, C522A) (P55072 2-806 C522A limits assumed): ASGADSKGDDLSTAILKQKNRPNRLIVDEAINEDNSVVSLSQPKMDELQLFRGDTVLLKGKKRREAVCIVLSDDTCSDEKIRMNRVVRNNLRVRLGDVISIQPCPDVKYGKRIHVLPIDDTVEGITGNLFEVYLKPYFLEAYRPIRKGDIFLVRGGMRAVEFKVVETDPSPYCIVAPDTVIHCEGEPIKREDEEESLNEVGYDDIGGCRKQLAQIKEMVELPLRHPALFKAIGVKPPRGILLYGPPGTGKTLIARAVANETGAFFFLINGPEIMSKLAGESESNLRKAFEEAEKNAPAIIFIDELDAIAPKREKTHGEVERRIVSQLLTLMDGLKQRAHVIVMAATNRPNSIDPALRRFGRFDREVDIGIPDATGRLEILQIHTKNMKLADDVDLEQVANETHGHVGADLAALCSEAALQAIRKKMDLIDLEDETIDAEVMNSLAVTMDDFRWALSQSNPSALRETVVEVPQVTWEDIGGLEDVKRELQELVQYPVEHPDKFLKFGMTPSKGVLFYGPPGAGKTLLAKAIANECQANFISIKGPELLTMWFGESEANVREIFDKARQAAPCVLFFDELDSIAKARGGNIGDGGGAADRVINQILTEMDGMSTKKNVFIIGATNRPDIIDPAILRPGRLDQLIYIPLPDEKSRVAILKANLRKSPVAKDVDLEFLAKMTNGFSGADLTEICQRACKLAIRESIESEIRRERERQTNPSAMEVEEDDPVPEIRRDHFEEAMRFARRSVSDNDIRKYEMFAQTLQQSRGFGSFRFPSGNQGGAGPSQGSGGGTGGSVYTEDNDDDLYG
In experiment [10] the test system is Streptococcus sp. 'group A'. Put plainly: Streptococcus pyogenes SK(-)GAS viability under kanamycin – luminescence, BacTiterGlo, confirmation, counter-screen for streptokinase expression inhibitor project, dose response (AID 1900). The experiment is classed as functional, organism-based.
A short description of experiment [11]: fluconazole-exposed Candida albicans growth modulators – fluorescence, retest, confirmation (AID 2467). The experiment is classed as functional, cell-based.
The test system of another experiment is Streptococcus. In words: GAS UMAA2166 growth inhibition – luminescence, BacTiterGlo, counter-screen for streptokinase expression inhibitor project, dose response (AID 1915).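 Also: potency for reduction of bacterial viability or growth.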 The class given is functional, organism-based.
The next experiment concerns the target Cytochrome P450 3A4 (Homo sapiens, UniProt P08684). The conditions noted are these: Potency.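 Also: confirmatory qHTS run detecting inhibitors and substrates of CYP3A4.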
A further experiment in a line: cells. The experiment is classed as functional.
In experiment [12] the target is T3, G-protein coupled receptor 55. Put plainly: selective activators of receptor GPR55 – imaging, U2OS cells, beta-arrestin-GFP redistribution, primary screen (AID 1961). The class given is functional.
The nature of experiment [13]: microbe, parasite or virus in culture. The class given is functional. The conditions noted are these: Mycobacterium tuberculosis.
The target of experiment [14] is T5, Alkaline phosphatase, tissue-nonspecific isozyme (Homo sapiens, UniProt P05186).
T5 sequence (P05186 whole entry): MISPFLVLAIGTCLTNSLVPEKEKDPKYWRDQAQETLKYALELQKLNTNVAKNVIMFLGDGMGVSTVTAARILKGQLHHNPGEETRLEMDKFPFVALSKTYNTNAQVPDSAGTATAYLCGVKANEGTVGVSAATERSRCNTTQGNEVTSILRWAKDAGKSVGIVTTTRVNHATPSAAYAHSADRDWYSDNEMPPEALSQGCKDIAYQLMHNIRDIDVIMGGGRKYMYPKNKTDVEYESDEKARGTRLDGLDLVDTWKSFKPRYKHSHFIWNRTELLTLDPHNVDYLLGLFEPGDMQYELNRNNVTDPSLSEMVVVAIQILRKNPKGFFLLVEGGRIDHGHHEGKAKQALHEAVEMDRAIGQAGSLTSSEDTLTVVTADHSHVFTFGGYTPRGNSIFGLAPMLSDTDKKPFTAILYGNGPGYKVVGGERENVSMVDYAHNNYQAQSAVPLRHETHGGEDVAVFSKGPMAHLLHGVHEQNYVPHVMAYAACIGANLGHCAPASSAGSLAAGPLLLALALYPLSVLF
In words: potency against alkaline phosphatase TNAP – biochemical, luminescent, dose response, SAR follow-up (AID 1056).

Experiment [15] has as its target Glyceraldehyde-3-phosphate dehydrogenase (Homo sapiens, UniProt P04406).
The target of experiment [16] is Alkaline phosphatase, placental type (Homo sapiens, UniProt P05187). In words: human placental alkaline phosphatase inhibition – biochemical, luminescence, confirmation (AID 1512). The class given is functional.
Chain of Alkaline phosphatase, placental type (P05187 whole entry): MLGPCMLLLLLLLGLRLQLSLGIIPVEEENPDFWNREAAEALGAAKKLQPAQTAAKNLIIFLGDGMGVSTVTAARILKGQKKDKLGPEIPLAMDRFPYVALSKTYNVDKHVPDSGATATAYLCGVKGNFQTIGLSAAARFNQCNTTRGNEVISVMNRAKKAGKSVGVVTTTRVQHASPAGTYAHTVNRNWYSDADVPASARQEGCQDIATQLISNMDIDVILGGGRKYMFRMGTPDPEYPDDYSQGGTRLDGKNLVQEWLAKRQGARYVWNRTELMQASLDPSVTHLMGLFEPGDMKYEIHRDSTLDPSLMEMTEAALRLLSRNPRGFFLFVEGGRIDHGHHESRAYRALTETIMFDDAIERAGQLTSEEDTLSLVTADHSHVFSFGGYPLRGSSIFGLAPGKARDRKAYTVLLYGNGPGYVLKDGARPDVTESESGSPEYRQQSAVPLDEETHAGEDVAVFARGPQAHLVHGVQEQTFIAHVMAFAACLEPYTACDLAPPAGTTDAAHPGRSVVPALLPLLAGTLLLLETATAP
For experiment [17], the target named is Eukaryotic translation initiation factor 4E (Mus musculus, UniProt P63073). In words: blockers of eIF4G binding by eIF4E – biochemical, TR-FRET, dose response (AID 855).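 Also: potency for disrupting eIF4E binding to eIF4GI seen as loss of FRET.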 The experiment is classed as functional.
Chain of Eukaryotic translation initiation factor 4E (P63073 whole entry): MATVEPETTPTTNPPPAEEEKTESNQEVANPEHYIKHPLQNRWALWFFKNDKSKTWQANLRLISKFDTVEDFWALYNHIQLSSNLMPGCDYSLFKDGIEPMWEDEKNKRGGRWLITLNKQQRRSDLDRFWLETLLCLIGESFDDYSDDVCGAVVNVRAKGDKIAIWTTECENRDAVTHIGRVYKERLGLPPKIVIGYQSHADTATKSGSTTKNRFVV
Experiment [18] has as its target T6, Rac GTPase-activating protein 1 (Homo sapiens, UniProt Q9H0H5).
T6 sequence (Q9H0H5 whole entry): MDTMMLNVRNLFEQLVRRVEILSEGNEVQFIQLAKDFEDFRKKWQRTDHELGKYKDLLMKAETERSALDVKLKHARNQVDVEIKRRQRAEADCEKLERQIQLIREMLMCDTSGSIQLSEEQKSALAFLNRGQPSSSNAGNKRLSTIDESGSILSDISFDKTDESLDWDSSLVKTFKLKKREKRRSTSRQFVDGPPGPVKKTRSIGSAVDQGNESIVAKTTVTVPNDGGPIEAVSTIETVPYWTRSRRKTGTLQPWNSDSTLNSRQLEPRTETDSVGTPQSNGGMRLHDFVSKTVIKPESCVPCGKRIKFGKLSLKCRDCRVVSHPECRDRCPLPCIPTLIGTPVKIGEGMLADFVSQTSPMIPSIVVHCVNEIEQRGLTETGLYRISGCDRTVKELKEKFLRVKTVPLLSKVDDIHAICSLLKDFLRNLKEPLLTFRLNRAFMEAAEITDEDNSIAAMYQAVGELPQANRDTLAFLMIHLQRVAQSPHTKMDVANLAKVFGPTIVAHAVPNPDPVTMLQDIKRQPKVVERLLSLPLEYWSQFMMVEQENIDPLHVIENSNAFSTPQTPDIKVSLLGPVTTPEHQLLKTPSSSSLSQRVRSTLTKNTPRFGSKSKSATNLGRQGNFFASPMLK
Put plainly: blockers of MgcRacGAP-driven Rac1 GTP hydrolysis – biochemical, ADP Hunter fluorescence, primary and confirmatory, confirmation (AID 624330). The class given is functional.

The target in experiment [19] is FAD-linked sulfhydryl oxidase ALR (Homo sapiens, UniProt P55789). In words: ALR-catalysed DTT oxidation blockers – biochemical, H2O2 detection, luminescence, cherry-pick, dose response (AID 493248).
Chain of FAD-linked sulfhydryl oxidase ALR (P55789 whole entry): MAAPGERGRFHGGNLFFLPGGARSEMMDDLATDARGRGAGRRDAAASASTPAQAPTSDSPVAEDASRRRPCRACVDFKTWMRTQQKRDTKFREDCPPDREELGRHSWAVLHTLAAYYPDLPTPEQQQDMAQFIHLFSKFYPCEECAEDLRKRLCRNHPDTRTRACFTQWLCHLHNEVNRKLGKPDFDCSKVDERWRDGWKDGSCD

Activity calls are given as the source filed them. Some results are limits rather than exact numbers.

T2 sequence (P31941 whole entry): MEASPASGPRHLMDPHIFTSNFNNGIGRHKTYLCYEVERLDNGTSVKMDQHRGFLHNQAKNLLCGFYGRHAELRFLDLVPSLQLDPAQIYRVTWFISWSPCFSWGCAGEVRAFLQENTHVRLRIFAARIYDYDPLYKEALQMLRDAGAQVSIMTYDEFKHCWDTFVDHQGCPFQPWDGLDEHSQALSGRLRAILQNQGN
T1 sequence (Q9HC16 whole entry): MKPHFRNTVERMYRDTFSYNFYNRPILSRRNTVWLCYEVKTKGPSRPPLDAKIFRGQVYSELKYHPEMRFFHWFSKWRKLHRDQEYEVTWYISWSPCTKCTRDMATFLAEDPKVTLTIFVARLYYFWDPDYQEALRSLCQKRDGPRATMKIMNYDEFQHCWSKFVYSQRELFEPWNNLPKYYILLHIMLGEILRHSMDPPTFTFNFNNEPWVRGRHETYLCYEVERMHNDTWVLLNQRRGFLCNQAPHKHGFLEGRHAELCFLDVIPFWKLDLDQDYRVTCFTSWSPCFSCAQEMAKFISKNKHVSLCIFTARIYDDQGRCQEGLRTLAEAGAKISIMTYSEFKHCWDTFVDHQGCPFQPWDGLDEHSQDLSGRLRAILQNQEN
Chain of Cytochrome P450 3A4 (P08684 whole entry): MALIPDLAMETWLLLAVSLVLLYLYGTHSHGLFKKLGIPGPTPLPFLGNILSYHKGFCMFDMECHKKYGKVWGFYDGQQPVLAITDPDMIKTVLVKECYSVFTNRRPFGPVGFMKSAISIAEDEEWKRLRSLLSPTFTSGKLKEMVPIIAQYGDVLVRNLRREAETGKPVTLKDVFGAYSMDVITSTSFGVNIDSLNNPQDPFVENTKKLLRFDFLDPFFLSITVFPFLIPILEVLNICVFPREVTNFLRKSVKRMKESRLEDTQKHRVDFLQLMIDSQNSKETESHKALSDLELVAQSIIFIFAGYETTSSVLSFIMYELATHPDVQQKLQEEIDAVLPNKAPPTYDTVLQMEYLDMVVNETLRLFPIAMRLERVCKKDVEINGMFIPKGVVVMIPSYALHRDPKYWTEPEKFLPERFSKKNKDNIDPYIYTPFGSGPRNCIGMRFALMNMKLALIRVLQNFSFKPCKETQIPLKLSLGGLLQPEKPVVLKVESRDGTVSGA
T3 sequence (Q9Y2T6 whole entry): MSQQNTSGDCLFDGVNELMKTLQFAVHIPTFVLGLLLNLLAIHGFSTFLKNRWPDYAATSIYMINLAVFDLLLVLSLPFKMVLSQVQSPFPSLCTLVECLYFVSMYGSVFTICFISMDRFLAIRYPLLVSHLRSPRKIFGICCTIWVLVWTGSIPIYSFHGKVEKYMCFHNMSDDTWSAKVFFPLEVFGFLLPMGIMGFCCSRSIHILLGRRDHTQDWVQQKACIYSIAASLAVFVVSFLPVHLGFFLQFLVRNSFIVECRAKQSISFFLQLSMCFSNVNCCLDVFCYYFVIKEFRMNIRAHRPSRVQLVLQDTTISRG
Chain of Glyceraldehyde-3-phosphate dehydrogenase (P04406 whole entry): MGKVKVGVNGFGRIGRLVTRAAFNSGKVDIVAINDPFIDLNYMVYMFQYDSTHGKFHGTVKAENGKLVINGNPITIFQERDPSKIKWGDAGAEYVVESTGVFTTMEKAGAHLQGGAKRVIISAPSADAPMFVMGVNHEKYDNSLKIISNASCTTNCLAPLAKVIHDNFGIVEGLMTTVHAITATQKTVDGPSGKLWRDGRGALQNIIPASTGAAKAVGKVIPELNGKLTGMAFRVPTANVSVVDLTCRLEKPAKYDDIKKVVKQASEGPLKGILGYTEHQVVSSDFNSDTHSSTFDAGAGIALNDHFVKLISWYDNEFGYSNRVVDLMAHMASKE
Chain of Transitional endoplasmic reticulum ATPase (Homo sapiens, UniProt P55072) (P55072 whole entry): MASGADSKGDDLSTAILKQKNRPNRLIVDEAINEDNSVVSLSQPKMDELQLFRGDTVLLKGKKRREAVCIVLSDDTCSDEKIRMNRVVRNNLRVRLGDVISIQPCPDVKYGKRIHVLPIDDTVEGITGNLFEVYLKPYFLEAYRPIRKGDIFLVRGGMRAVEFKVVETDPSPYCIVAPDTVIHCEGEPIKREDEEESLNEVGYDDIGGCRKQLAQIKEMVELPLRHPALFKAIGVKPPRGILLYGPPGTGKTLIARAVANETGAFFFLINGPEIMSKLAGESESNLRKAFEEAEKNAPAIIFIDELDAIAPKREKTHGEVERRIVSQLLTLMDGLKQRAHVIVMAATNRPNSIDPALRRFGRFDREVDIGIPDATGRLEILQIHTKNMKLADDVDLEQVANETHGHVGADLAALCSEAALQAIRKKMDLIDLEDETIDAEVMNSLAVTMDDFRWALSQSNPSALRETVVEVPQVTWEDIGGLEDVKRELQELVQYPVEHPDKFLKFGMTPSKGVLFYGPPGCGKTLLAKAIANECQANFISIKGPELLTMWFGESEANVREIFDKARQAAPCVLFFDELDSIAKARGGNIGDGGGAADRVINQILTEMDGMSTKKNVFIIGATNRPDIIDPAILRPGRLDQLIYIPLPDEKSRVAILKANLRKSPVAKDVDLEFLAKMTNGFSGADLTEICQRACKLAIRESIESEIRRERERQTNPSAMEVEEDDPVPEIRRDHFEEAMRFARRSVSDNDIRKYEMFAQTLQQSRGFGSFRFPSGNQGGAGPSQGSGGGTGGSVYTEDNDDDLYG
Chain of Glucose-6-phosphate 1-dehydrogenase (P11413 whole entry): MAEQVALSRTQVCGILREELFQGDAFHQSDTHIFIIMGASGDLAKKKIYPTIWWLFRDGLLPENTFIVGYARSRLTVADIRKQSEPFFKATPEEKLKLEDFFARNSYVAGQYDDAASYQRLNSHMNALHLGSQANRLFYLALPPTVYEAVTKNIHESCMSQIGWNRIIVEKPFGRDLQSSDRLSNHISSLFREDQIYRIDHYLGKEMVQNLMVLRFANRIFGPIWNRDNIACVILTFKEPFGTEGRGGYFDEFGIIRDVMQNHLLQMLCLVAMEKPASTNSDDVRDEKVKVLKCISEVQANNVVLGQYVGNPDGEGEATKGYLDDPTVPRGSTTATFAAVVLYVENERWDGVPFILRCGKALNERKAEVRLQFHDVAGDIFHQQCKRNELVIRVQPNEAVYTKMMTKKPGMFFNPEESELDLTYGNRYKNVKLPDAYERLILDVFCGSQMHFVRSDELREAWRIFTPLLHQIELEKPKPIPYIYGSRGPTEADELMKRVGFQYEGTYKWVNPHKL

Regarding `COC(=O)C1=C(C)N(CC2CC2)C(=NCCN2CCOCC2)N[C@H]1c1ccccc1`, the IC50 in [1] is 4.91 µM (active); in experiment [2], 5.16 µM (active).
As to `COc1ccc(C23CC4CC(CC(C4)C2)C3)cc1C(=O)NCCN(C)C`, in experiment [3], the half-inhibitory concentration (IC50) was 1.37 µM (active).
For `Cc1ccc(NC(=O)Cn2sc3nc(C)cc(C)c3c2=O)c(Cl)c1`, the concentration for half-maximal inhibition (IC50) in experiment [4] is 4.88 µM (active); in [5], > 100 µM (inactive); in [6], 30.5 µM (inactive).
As to `Cc1ccc(SC/C(O)=C(\C#N)c2nc3ccccc3s2)cc1`, the 50% effective concentration (EC50) was > 150 µM (not active) at Streptokinase A; 138 µM (active) in [8]; 2.95 µM (active) in [10]; 0.425 µM (active) in [11]; 7.74 µM (active) in the experiment with Streptococcus. The IC50 in experiment [7] and in experiment [9] was > 50 µM (not active) throughout.
`CC(=O)Oc1ccc2c(c1)CCC1C2CC[C@]2(C)C(OC(C)=O)CCC12` (some centres not stated): at Cytochrome P450 3A4, the AC50 is 31.6 µM (inconclusive).
In the case of `COC(=O)c1ccc(Cn2cc(C(F)(F)F)cc([N+](=O)[O-])c2=O)cc1`, the IC50 in “cells” was 1.28 µM (active).
Regarding `COc1ccc(-c2csc3nc(-c4ccccc4OC)oc(=O)c23)cc1`, in experiment [12], the EC50 is 25 µM (inactive). In addition, the CC50 in [13] is 30.8 µM (active).
On to `CCN1CCCC1Cn1c(-c2ccccc2)nc2c(N3CCOCC3)nc(C)nc21` (configuration not stated), for which the AC50 on Cytochrome P450 3A4 was 12.6 µM (inconclusive).
`N#CC1=C(S)N(c2ccccc2)C(c2ccc(-c3cc(Cl)ccc3Cl)o2)NC1=O` (configuration not stated): the EC50 in experiment [12] was > 32 µM (inactive).
Regarding `O=C1c2ccccc2C(=O)N1c1nncs1`, the figures for the IC50 in [14] and in [15] were > 100 µM (inactive) and > 100 µM (not active), respectively.
Consider `Cc1ccc(C)c(NC(=S)NC(NC(=O)Cc2cccc3ccccc23)C(Cl)(Cl)Cl)c1` (configuration not stated), for which the results for the IC50 in experiment [16] and in experiment [14] were 11.5 µM (active) and > 100 µM (inactive), respectively.
Turning to `Cc1cccc(OC(=O)c2ccc3nccnc3c2)c1`, the 50% inhibitory concentration (IC50) in “cells” was 9.63 µM (active).
`CCOC(=O)/C(C#N)=C/c1ccc(OC(=O)c2ccccn2)cc1`: in experiment [17], the IC50 was > 64 µM (inactive).
Turning to `CC(NC(=O)COc1ccc(-c2ccccc2)cc1)C1CCCO1` (configuration not stated), in “cells”, the IC50 was 45.6 µM (active).
`CC1(C)CC(=O)c2c(-c3ccc(F)cc3)n[nH]c2C1`: the IC50 in experiment [16] is > 100 µM (inactive); in experiment [14] it was 5.95 µM (active); in [15], > 100 µM (not active).
As to `COc1ccc(SC[C@H](CC(C)C)N2CCN(CCc3ccccc3)CCC2=O)cc1`, in experiment [12], the EC50 was 10.8 µM (inactive).
Take `CCOC(=O)COc1ccc(C(=O)c2ccccc2)c(O)c1`: the IC50 in “cells” is 3.02 µM (active).
On to `COC(=O)C1=C(C)N(Cc2ccccc2)C(NCc2ccc(OC)cc2)=N[C@H]1c1ccccc1`, for which the half-inhibitory concentration (IC50) in experiment [1] is 10.8 µM (active); in experiment [2], 5.01 µM (active).
Consider `O=C(NNC(=S)NC(=O)c1ccccc1[N+](=O)[O-])c1ccccc1[N+](=O)[O-]`, for which the IC50 in [16] is > 100 µM (inactive).
As to `Cc1ccc(/C=N/n2c(S)nnc2-c2cccnc2)s1`, the results for the half-maximal inhibitory concentration (IC50) in experiment [4], in [5] and in experiment [18] were 2 µM (active), > 100 µM (inactive) and 53.9 µM (active), respectively. Also, in [19], the concentration at half-maximal activity (AC50) is 2.34 µM (active).
For the compound `O=C(O)c1cc(NS(=O)(=O)c2ccc(NC3CCCCC3)c([N+](=O)[O-])c2)cc(C(=O)O)c1`, the 50% inhibitory concentration (IC50) in experiment [3] was 5.62 µM (active).
For the compound `Sc1nc(-c2ccc(Cl)cc2Cl)n[nH]1`, the IC50 in experiment [16] was > 100 µM (inactive); in experiment [14], > 100 µM (inactive); in experiment [15], > 100 µM (not active).
Turning to `Cc1c2ccccc2cc(Cc2ccccc2)[n+]1C`, the half-maximal inhibitory concentration (IC50) was 2.98 µM (active) in [1] and 3.64 µM (active) in [2].
Turning to `COc1ccc(/C=N/NC(=O)c2cc(C34CC5CC(CC(C5)C3)C4)[nH]n2)cc1OC`, the IC50 in [3] was 2.74 µM (active).
Consider `COC(=O)[C@@H]1C[C@@]2(O)[C@H](O)[C@H](O)[C@H](O)C[C@H]2N1Cc1ccc(C(F)(F)F)cc1`, for which the half-maximal activity concentration (AC50) at Cytochrome P450 3A4 is 20 µM (inconclusive).
For the compound `COc1ccc(-c2c(-c3ccc(OCC(=O)NN)cc3O)n[nH]c2C(F)(F)F)cc1`, the 50% inhibitory concentration (IC50) in experiment [3] is 2.75 µM (active).
